Measurements: patent US12583848B2, “Isoxazole-3-carboxamide derivatives and their use for treatment of diseases caused by virus infection” (Collaborations Pharmaceuticals, Inc., priority 2019, dated 2026)
In brackets after ≈: the same amount, converted by molar mass. Several values for one entry are separate records, joined by “and”; a condition that tells them apart may be missing. Equal entries are not always repeated. Where two headings read alike, the source gives them in different places.

How the values were obtained:
[1] = system: enterovirus 71 (strain Tainan/4643/98); assay: microbe, parasite or virus in culture; format: cell-based; set-up: SI50: unit not given beside the values
[2] = system: influenza A virus, subtype H1N1 (strain California/07/2009); assay: microbe, parasite or virus in culture; format: cell-based; set-up: SI50: unit not given beside the values
[3] = system: rhinovirus B14 (RV-B14); assay: organism not typed; format: cell-based; details: HeLa, 72 h, read-out: IC50 against Rhinoviruses (RV) RV-B14
[4] = system: rhinovirus A2 (RV-A2); assay: organism not typed; format: cell-based; details: HeLa, 72 h, read-out: IC50 against Rhinoviruses (RV) RV-A2
[5] = in vitro
[6] = Cell permeability (Caco-2); format: in vitro ADME; details: human, Caco-2
Method: (§1) In vitro ADME studies were performed on compound 8. Cell permeability (Caco-2) results were as follows: Apical (A) to (Basolateral) B 8.8×10^−4 cm/s; […]

[7] = system: Caco-2; assay: Cell permeability (Caco-2); format: in vitro ADME; details: concluded from Caco-2 efflux
Method: as §1

[8] = Microsomal stability, human liver microsomes; format: in vitro ADME
Method: (§2) In vitro ADME studies were performed on compound 8.

[9] = Protein binding, human; format: in vitro ADME
Method: as §2

[10] = system: HeLa cells; details: human
[11] = system: Escherichia coli PQ37
[12] = system: CYP3A4; details: for CYP3A4 induction, % of control: control = rifampicin; for CYP3A4 induction (fold): cryopreserved hepatocytes, midazolam substrate
[13] = system: Enterovirus 68 (strain US/KY/14-18953); assay: microbe, parasite or virus in culture; format: cell-based; set-up: SI50: unit not given beside the values
[14] = system: Enterovirus D68 (EV-D68 MP30 PP); format: in vivo, AG129 mice; details: for weight loss (percentage of initial body weight) following infection: 100 mg/kg/d PO, EV-D68 infected AG129 mice, days 1-5
[15] = Protein binding, mouse; format: in vitro ADME
Method: as §2

[16] = system: viruses resistant to pleconaril; assay: Inhibition of replication of a broad spectrum of EV in vitro; format: cell-based; details: read-out: IC50 values for viruses resistant to pleconaril
[17] = system: CVB3 97927-I1207K (pleconaril-resistant variant); format: cell-based, coxsackievirus B3
[18] = system: rhinovirus B5 (RV-B5); assay: organism not typed; format: cell-based; details: HeLa cells, CPE inhibition, 72 hours; n.a. = not active; read-out: IC50 against Rhinoviruses (RV) RV-B5
[19] = system: polio virus-1 (strain Mahoney); assay: organism not typed; format: cell-based; set-up: SI50: unit not given beside the values
[20] = system: CVB3 97927-I1207T (pleconaril-resistant variant); format: cell-based, coxsackievirus B3
[21] = Pharmacokinetic study in mice; format: in vivo, white BALB/c male mice
Method: The pharmacokinetics of the compound 8 has been studied in white BALB/c male mice. 22 animals with average body weight of 20 g were selected for the study. Before the experiment the animals were kept on standard vivarium ration with dry pelleted feed. All the test animals had free access to water but were deprived of food for 1 hour before administration of the compound. This regimen was continued for another hour after the administration. […] The animals were euthanized by decapitation for blood sampling. […] Blood was collected in heparinized tubes and centrifuged at 3500 RPM. Plasma was separated from formed elements and immediately frozen at -20° C. in freezer. This storage continued before transferring of plasma for analysis. Serum from 6 untreated animals was used as control and for equipment calibration with compound. Mice brain was immediately frozen at -120° C. Plasma separation: […] Sample preparation: A mixture of 50 μL of plasma and 150 μL of MeCN by intensive shaking (Vortex) for 30 sec. Centrifugation 14000 g for 4 min. […] See also FIG. 1.

[22] = mouse, in vivo, po
[23] = Solubility; format: physicochemical; details: pH 7.4, aqueous buffer
Method: as §2

[24] = system: CVB3 97927-I1207M (pleconaril-resistant variant); format: cell-based, coxsackievirus B3
[25] = Microsomal stability, mouse liver microsomes; format: in vitro ADME
Method: as §2

[26] = system: mouse-adapted EV D68; assay: microbe, parasite or virus in culture; format: cell-based; set-up: SI50: unit not given beside the values
[27] = biological target: PXR (Homo sapiens, UniProt O75469); assay: biochemical
Sequence of PXR (O75469 111-434 limits assumed): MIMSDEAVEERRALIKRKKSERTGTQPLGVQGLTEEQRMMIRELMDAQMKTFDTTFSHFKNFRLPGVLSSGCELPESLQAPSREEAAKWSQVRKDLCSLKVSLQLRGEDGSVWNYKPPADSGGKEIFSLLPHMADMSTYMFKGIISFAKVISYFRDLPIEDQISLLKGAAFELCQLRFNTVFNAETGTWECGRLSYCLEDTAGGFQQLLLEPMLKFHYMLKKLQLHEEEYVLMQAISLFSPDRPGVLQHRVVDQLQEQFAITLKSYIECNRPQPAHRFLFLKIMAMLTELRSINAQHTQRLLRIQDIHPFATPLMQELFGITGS

[28] = read-out: Protein binding, bound (converted)
[29] = mice, 100 mg/kg intragastric, plasma

## Cc1cc(-c2noc(C(F)(F)F)n2)ccc1OCCCc1cc(C(=O)N(C)C)no1 [Compound 8, N,N-dimethyl-5-(3-{2-methyl-4-[5-(trifluoromethyl)-1,2,4-oxadiazol-3-yl]phenoxy}propyl)isoxazole-3-carboxamide]
[1]
  SI50: 24
[1]; Enterovirus A, Vero 76
  EC50: 940 nM
[2]
  SI50: 4.3
[2]; Influenza A virus, H1N1
  EC90: 4.4 µM
[3]
  IC50: 70 nM
[4]
  IC50: 410 nM
[5]
  CC50: 52 µM
[6]
  efflux ratio: 3.5
[7]
  P-gp substrate: likely P-gp substrate
[8]
  half-life: 55.3 min
  microsomal CLint: 25.1 µL/min/mg
[9]
  Protein binding, stability: 93.9%
[9]; [28]
  fraction unbound: 0.003
[10]
  CC50: 13.4 µM
[11]
  Mutagenicity: NO
[12]; 1 μM
  CYP3A4 induction, % of control: 3 % of control
  CYP3A4 induction (fold): 1.2 ×
[12]; 10 μM
  CYP3A4 induction, % of control: 7 % of control
  CYP3A4 induction (fold): 1.4 ×
[13]
  SI50: >520
[13]; Enterovirus D
  EC50: 18 nM
[14]
  weight loss (percentage of initial body weight) following infection: protected mice from weight loss
[14]; listed as compound 8
  weight loss (percentage of initial body weight) following infection: significant protection from weight loss
[14]; day 5 post-infection
  blood virus: No virus was detected
[15]
  Protein binding, stability: 88.1%
[15]; [28]
  fraction unbound: 0.002
[16]
  IC50: 40 to 640 nM
[17]
  IC50: 3.67 µM
[18]
  IC50: 2260 nM
[19]
  SI50: 11
[19]; Vero 76
  EC50: 320 nM
[20]
  IC50: 10 nM
[21]; 0.50 hours, individual mice, 100 mg/kg intragastric, 100 mg/kg
  Concentration in mice plasma: 963.29 ng/mL and 2031.52 ng/mL and 1979.28 ng/mL and 2114.06 ng/mL and 1464.12 ng/mL
[21]; 1 hour, individual mice, 100 mg/kg intragastric, 100 mg/kg
  Concentration in mice plasma: 660.65 ng/mL and 1138.34 ng/mL
[21]; 2 hours, individual mice, 100 mg/kg intragastric, 100 mg/kg
  Concentration in mice plasma: 667.90 ng/mL and 379.89 ng/mL and 461.99 ng/mL
[21]; 3 hours, individual mice, 100 mg/kg intragastric, 100 mg/kg
  Concentration in mice plasma: 344.86 ng/mL and 107.10 ng/mL and 403.55 ng/mL
[21]; 5 hours, individual mice, 100 mg/kg intragastric, 100 mg/kg
  Concentration in mice plasma: 228.15 ng/mL and 74.82 ng/mL and 147.00 ng/mL
[21]; 7 hours, individual mice, 100 mg/kg intragastric, 100 mg/kg
  Concentration in mice plasma: 90.82 ng/mL and 44.49 ng/mL and 13.49 ng/mL and 45.70 ng/mL
[21]; male, BALB/c, mouse, plasma, oral, 100 mg/kg, 0.50 hours, 100 mg/kg intragastric
  concentration at 0.5 h: 1710 ng/mL
[21]; male, BALB/c, mouse, plasma, oral, 100 mg/kg, 1 hour, 100 mg/kg intragastric, read-out: Concentration in mice plasma, Average
  concentration at 1 h: 966 ng/mL
[21]; male, BALB/c, mouse, plasma, oral, 100 mg/kg, 1 hour, individual mice, 100 mg/kg intragastric, read-out: Concentration in mice plasma
  concentration at 1 h: 1100 ng/mL
[21]; male, BALB/c, mouse, plasma, oral, 100 mg/kg, 2 hours, 100 mg/kg intragastric, read-out: Concentration in mice plasma, Average
  concentration at 2 h: 536 ng/mL
[21]; male, BALB/c, mouse, plasma, oral, 100 mg/kg, 2 hours, individual mice, 100 mg/kg intragastric, read-out: Concentration in mice plasma
  concentration at 2 h: 634 ng/mL
[21]; male, BALB/c, mouse, plasma, oral, 100 mg/kg, 3 hours, 100 mg/kg intragastric
  concentration at 3 h: 285 ng/mL
[21]; male, BALB/c, mouse, plasma, oral, 100 mg/kg, 5 hours, 100 mg/kg intragastric
  concentration at 5 h: 124 ng/mL
[21]; male, BALB/c, mouse, plasma, oral, 100 mg/kg, 7 hours, 100 mg/kg intragastric
  concentration at 7 h: 49.6 ng/mL
[21]; male, BALB/c, mouse, po, mice, 100 mg/kg intragastric, plasma, read-out: AUC0-oo
  AUC: 3020 ng·h/mL
[21]; mice
  oral bioavailability: very high oral bioavailability
[21]; [29]
  CL: 0.66 L/h
  Cmax.: 1710.5 ± 489.2 ng/mL
  MRT: 2.15 h
  T1/2: 1.58 h
  Tmax.: 30 min
  Vd: 1.52 L
  kel: 0.4373 h⁻¹
[22]
  Maximum tolerated dose (MTD): at least 100 milligrams per kilogram body weight per day
[23]
  solubility: 0.11 µM (≈ 0.0467 µg/mL)
[24]
  IC50: 4 nM
[25]
  microsomal stability (verdict): unstable
[25]; read-out: half-life (t1/2)
  half-life: 19.6 min
[25]; read-out: intrinsic clearance (CLint)
  microsomal CLint: 70.6 µL/min/mg
[26]
  SI50: 173
[26]; Enterovirus D, EVD68
  EC50: 23 nM
[27]
  IC50: > 100 µM
